Test results reported in patent US20030191342A1, “Process for the production of crystals of a benzoic acid derivative” (priority 2000, published 2003).

Assays:
[1] = background art statement, no method given; cited from earlier work
[2] = Grain size distribution by laser-type grain size analyzer (Microtrac FRA); type: physicochemical; settings: crystals dispersed in aqueous Soprophor FL; for Average grain size 10%: 10% point of grain size distribution; for Average grain size 50%: 50% point of grain size distribution; for Average grain size 90%: 90% point of grain size distribution
Protocol: Grain size distributions of the crystals obtained in Example 1 and Comparative Example 1 were measured. A laser-type grain size analyzer (Microtrac FRA) was used. A 1% aqueous solution of Soprophor FL (3 ml, Rhone-Poulenc) was added with water (15 ml), and an appropriate amount of the crystals obtained in Example 1 or Comparative Example 1 were dispersed in the mixture to obtain a sample dispersion.

| Average grain size 10% [2] [μm] | Average grain size 50% [2] [μm] | Average grain size 90% [2] [μm] | Compound | stability of crystalline form against physical impact [1] | stability against heat, temperature, light and the like [1] |
| --- | --- | --- | --- | --- | --- |
| – | – | – | CC1(C)CCC(C)(C)c2cc(NC(=O)c3ccc(C(=O)O)cc3)ccc21 [crystal that melts at 193° C., 4-[(5,6,7,8-tetrahydro-5,5,8,8-tetramethyl-2-naphthalenyl)carbamoyl]benzoic acid, reference compound] | crystalline form readily occurs transition by physical impact | – |
| 16.38 | 39.74 | 86.92 | CC1(C)CCC(C)(C)c2cc(NC(=O)c3ccc(C(=O)O)cc3)ccc21 [Ethanol/water, 4-[(5,6,7,8-Tetrahydro-5,5,8,8-tetramethyl-2-naphthalenyl)carbamoyl]benzoic acid] | – | – |
| 42.74 | 96.29 | 268.75 | CC1(C)CCC(C)(C)c2cc(NC(=O)c3ccc(C(=O)O)cc3)ccc21 [Methanol/water, 4-[(5,6,7,8-Tetrahydro-5,5,8,8-tetramethyl-2-naphthalenyl)carbamoyl]benzoic acid, reference compound] | – | – |
| – | – | – | CC1(C)CCC(C)(C)c2cc(NC(=O)c3ccc(C(=O)O)cc3)ccc21 [crystal that melts at 233° C., 4-[(5,6,7,8-tetrahydro-5,5,8,8-tetramethyl-2-naphthalenyl)carbamoyl]benzoic acid] | high stability | high stability |
